The subject of one test is PC3 (Prostate Cancer). Description: MTT cytotoxicity assay, PC3 cells, 48 hours. In kind it is cell-based. To be noted: 48 hours incubation, read-out: IC50 [MTT Assays] PC3 (Prostate Cancer). Here is the method: (§1) Cytotoxicity was determined by MTT assays and the IC50 values were determined using Graphpad Prism Software.
Another test has as its system U373 (Brain Tumor). Description: MTT cytotoxicity assay, U373 cells, 48 hours. In kind it is cell-based. As to conditions: 48 hours incubation, read-out: IC50 [MTT Assays] U373 (Brain Tumor). The procedure:
as §1
In general terms: Formazan colour is commonly taken as a measure of viable cells.

A further test relates to BT-20 (Breast Cancer). Description: MTT cytotoxicity assay, BT-20 cells, 48 hours. In kind it is cell-based. As to conditions: 48 hours incubation, read-out: IC50 [MTT Assays] BT-20 (Breast Cancer). Here is the method: as §1
In a further test the test system is NALM-6 (Leukemia). Description: MTT cytotoxicity assay, NALM-6 cells, 48 hours. In kind it is cell-based, human. To be noted: 48 hours incubation, read-out: IC50 [MTT Assays] NALM-6 (Leukemia). The procedure:
(§2) The cells were incubated with concentrations ranging from 0.1 μM to 250 μM of the appropriate compound in 96-well plates for 48 hours. Cytotoxicity was determined by MTT [(3-[4,5-dimethylthiazol-2-yl]-2,5-diphenyl tetrazolium bromide)] assays. The results are graphed in FIG. 1a for NALM-6 cells and FIG. 1b for MOLT-3 cells.
as §1

A further test concerns MOLT-3 (Leukemia). Description: MTT cytotoxicity assay, MOLT-3 cells, 48 hours. The format is cell-based, human. As to conditions: 48 hours incubation, read-out: IC50 [MTT Assays] MOLT-3 (Leukemia). Here is the method:
as §2, §1

Test [1] has as its system HS-Sultan (Multiple Myeloma). Description: MTT cytotoxicity assay, HS-Sultan cells, 48 hours. The format is cell-based. To be noted: 48 hours incubation, read-out: IC50 [MTT Assays] HS-Sultan (Multiple Myeloma). Here is the method:
as §1

The test system of test [2] is U266BL (Multiple Myeloma). Description: MTT cytotoxicity assay, U266BL cells, 48 hours. To be noted: 48 hours incubation, read-out: IC50 [MTT Assays] U266BL (Multiple Myeloma). In kind it is cell-based. Here is the method: as §1
Test [3] deals with B-lineage acute lymphoblastic leukemia (NALM-6) cells. Description: In situ apoptosis assay (TUNEL), NALM-6 cells. In kind it is cell-based, human. To be noted: 5 μM, 48 hours. Here is the method: (§3) The effectiveness of inducing apoptosis by compound (5) as synthesized and described in example 2 was measured for human B-lineage acute lymphoblastic leukemia (NALM-6) cells, T-lineage acute lymphoblastic leukemia (MOLT-3) cells, and multiple myeloma (ARH-77) cells. The cells were incubated with concentrations of 5 μM of compound (5) in 96-well plates 48 hours. An in situ apoptosis assay, which allows the detection of exposed 3′-hydroxyl groups in fragmented DNA by TdT-mediated dUTP nick-end labeling (TUNEL), was used by fixing, permeabilizing and visualizing the DNA degradation. Apoptotic nuclei were detected visually with a color change. The amount of apoptotic nuclei of the control cells (not incubated with compound (5)) and the incubated cells were compared.

The test system is the same in test [4]. Description: Clonogenic growth assay, NALM-6 cells. The format is cell-based, human. As to conditions: 24 hours exposure, 7 days culture. The procedure: (§4) The effect on clonogenic growth of human cancer cell lines was determined for compound (5) as synthesized and described in example 2 and cisplastin for human B-lineage acute lymphoblastic leukemia (NALM-6) cells and T-lineage acute lymphoblastic leukemia (MOLT-3) cells. The cells were incubated with concentrations ranging from 0 (control) to 10 μM of the appropriate compound for 24 hours at 37° C. in a humidified 5% CO2 atmosphere. The cells were then resuspended in clonogenic a-MEM medium containing 0.9% methyl cellulose. 1×10^4 cells/dish were plated in 35 mm Petri dishes and cultured for 7 days at 37° C. in a humidified 5% CO2 atmosphere. The colonies containing ≧20 cells were counted using an inverted phase microscope.

Test [5] relates to multiple myeloma (ARH-77) cells. Description: In situ apoptosis assay (TUNEL), ARH-77 cells. The format is cell-based, human. To be noted: 5 μM, 48 hours. Here is the method: as §3
For test [6], the system named is MDA-MB-231 (Breast Cancer). Description: MTT cytotoxicity assay, MDA-MB-231 cells, 48 hours. The format is cell-based. As to conditions: 48 hours incubation, read-out: IC50 [MTT Assays] MDA-MB-231 (Breast Cancer). The procedure: as §1
The test system of test [7] is T-lineage acute lymphoblastic leukemia (MOLT-3) cells. Description: Clonogenic growth assay, MOLT-3 cells. In kind it is cell-based, human. To be noted: 24 hours exposure, 7 days culture. The procedure:
as §4

For test [8] the test system is unchanged. Description: In situ apoptosis assay (TUNEL), MOLT-3 cells. In kind it is cell-based, human. As to conditions: 5 μM, 48 hours. Here is the method:
as §3

The term IC50 denotes the concentration that inhibits the measured activity by half. Turning to “cis-[Pt(CPDCA)(NH2C2H4OH)2] [(3) DDE248]”, the 50% inhibitory concentration (IC50) in the test with PC3 (Prostate Cancer) came out at 248 ± 9.3 µM; in the test on U373 (Brain Tumor), 130 ± 8.2 µM; in the test on BT-20 (Breast Cancer) it was 48.9 ± 7.3 µM; in the test on NALM-6 (Leukemia), 75.3 ± 5.2 µM; in the test with MOLT-3 (Leukemia), 33.5 ± 4.5 µM.
For `N.N.[Cl][Pt][Cl]` [Cisplatin, reference compound], the IC50 was over 250 µM in the test on PC3 (Prostate Cancer); over 250 µM in the test on U373 (Brain Tumor); 7.21 ± 3.5 µM with BT-20 (Breast Cancer); 1.1 ± 0.02 µM in the test with NALM-6 (Leukemia); 31.8 ± 7.2 µM in [1]; 15.6 ± 3.5 µM in [2]. Further, the IC50 with MOLT-3 (Leukemia) was 1.04 ± 0.02 µM.
On to cis-[Pt(CPDCA)(DACH)]H2O [(5) DDE250], for which the half-inhibitory concentration (IC50) in the test with PC3 (Prostate Cancer) was over 250 µM; in test [6], 38.5 ± 6.4 µM; with U373 (Brain Tumor) it was over 250 µM; with BT-20 (Breast Cancer) it was 21.3 ± 3.1 µM; in the test on NALM-6 (Leukemia), 0.45 ± 0.02 µM; in test [1], 21.5 ± 3.5 µM. The values for the IC50 (in [2]; in the test with MOLT-3 (Leukemia)) were 18.6 ± 2.1 µM and 0.66 ± 0.01 µM, respectively. In addition, the “apoptosis (apoptotic nuclei, TUNEL) over the control” value in test [3], in test [5] and in [8] was “greatly increased apoptosis over the control” in each case. The “% Inhibition (clonogenic growth)” value in test [4] (NALM-6, 0.01 μM) was found to be 42.9%; in test [4] (NALM-6, 0.1 μM), 48.4%; in test [4] (NALM-6, 1 μM), 93.3%; in test [7] (MOLT-3, 0.01 μM) it was 67.7%; in test [7] (MOLT-3, 0.1 μM) it was 67.5%; in [7] (MOLT-3, 1 μM), 95.1%. Moreover, the “Mean No. of Colonies/10^5 cells” value in test [4] (NALM-6, 0.01 μM) is given as 2110 (1928, 2292) Colonies/10^5 cells; in test [4] (NALM-6, 0.1 μM), 1908 (1886, 1930) Colonies/10^5 cells; in test [4] (NALM-6, 1 μM), 248 (228, 268) Colonies/10^5 cells; in test [4] (NALM-6, 10 μM), 0 Colonies/10^5 cells; in test [7] (MOLT-3, 0.01 μM), 1182 (1080, 1284) Colonies/10^5 cells; in test [7] (MOLT-3, 0.1 μM), 1188 (1095, 1281) Colonies/10^5 cells. The “Mean No. of Colonies/10^5 cells” value is 179 (170, 188) Colonies/10^5 cells in test [7] (MOLT-3, 1 μM) and 0 Colonies/10^5 cells in test [7] (MOLT-3, 10 μM).
With cis-[Pt(CPDCA)(NH3)2]H2O [(6) DDE173], the concentration for half-maximal inhibition (IC50) in the test with PC3 (Prostate Cancer) is over 250 µM; with U373 (Brain Tumor) it was over 250 µM; in the test with BT-20 (Breast Cancer), over 250 µM; with NALM-6 (Leukemia), 90.8 ± 6.2 µM; in the test on MOLT-3 (Leukemia), 41.8 ± 3.5 µM.

These data come from US6737537B2, “Platinum (II) antitumor compounds” (Parker Hughes Institute, priority 1999, dated 2004).
